Starred links: 1 amine or outer side, 2 acyl side, 3 side chain; linkers in the order of their positions; H or OH if unused. Non-standard residues stand in square brackets, D forms with d. Residues, ends and D or L forms follow the SMILES beside them. *: point of attachment. Ac6c = NC1(C(=O)O)CCCCC1; Morpholide = C1CN(*)CCO1; Nle = CCCC[C@H](N)C(=O)O; Cbz = O=C(OCc1ccccc1)*; CO = O=C([*:1])[*:2]
Tests used:
Assay type in all cases: biochemical
Cathepsin K = biological target: T1, Cathepsin K (Oryctolagus cuniculus, UniProt P43236); assay: Measurement of cathepsin K inhibitory activity (fluorescent substrate Z-Gly-Pro-Arg-MCA); settings: pH 6.0, 37° C., 30 minutes
T1 construct: Active enzyme was produced by expressing cathepsin K in the form of a proenzyme; made in house; host or cells: Sf21 insect cells (baculovirus expression system)
T1 sequence (P43236 115-329): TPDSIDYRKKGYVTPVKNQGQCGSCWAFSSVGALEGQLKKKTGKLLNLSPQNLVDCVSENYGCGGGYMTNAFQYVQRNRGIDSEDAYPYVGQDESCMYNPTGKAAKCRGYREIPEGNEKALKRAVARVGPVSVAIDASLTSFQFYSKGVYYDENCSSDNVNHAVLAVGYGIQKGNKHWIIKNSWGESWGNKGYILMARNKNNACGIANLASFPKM
Method: Active enzyme was produced by expressing cathepsin K in the form of a proenzyme in a cell culture from a baculovirus expression system using Sf21 insect cells, followed by incubating for 1 hour at 40° C.^1). Cathepsin K activity was measured based on decomposition of the fluorescent substrate Z-Gly-Pro-Arg-MCA (Peptide Institute, Inc.) in compliance with the method of Aibe, et al.^2). Namely, the decomposition of […] Z-Gly-Pro-Arg-MCA by cathepsin K was measured in 100 mM sodium/potassium phosphate, 1 mM EDTA and 8 mM cysteine at pH 6.0. The reaction was carried out for 30 minutes at 37° C., and stopped by the addition of 2×10^−5 M Calpeptin. After stopping the reaction, fluorescent intensity was measured at an excitation wavelength of 355 nm and measurement wavelength of 460 nm. Inhibition of cathepsin K by the compounds was examined using the reaction system described above.

Human cathepsin B = biological target: T2, Human cathepsin B (Homo sapiens, UniProt P07858); assay: Measurement of cathepsin B inhibitory activity (fluorescent substrate Z-Arg-Arg-MCA); settings: for IC50: pH 6.0, 30° C., 30 minutes; for B/K (ratio of IC50 cathepsin B to IC50 cathepsin K): selectivity ratio B/K
T2 construct: purchased Calbiochem Corp
Method: (§1) Human cathepsin B (Calbiochem Corp.) was used for measurement. Activity was measured based on decomposition of the fluorescent substrate Z-Arg-Arg-MCA (Peptide Institute, Inc.) in compliance with the method of Barrett, et al.^3). Namely, the decomposition of 20 mM Z-Arg-Arg-MCA by cathepsin B was measured in 100 mM sodium/potassium phosphate, 1 mM EDTA, 8 mM cysteine and 0.005% Brij35 at pH 6.0. The reaction was carried out for 30 minutes at 30° C., and stopped by the addition of 2×10^−5 M Calpeptin. After stopping the reaction, fluorescent intensity was measured at an excitation wavelength of 355 nm and measurement wavelength of 460 nm. Inhibition of cathepsin B by the compounds was examined using the reaction system described above.

Human cathepsin L = biological target: T3, Human cathepsin L (Homo sapiens, UniProt P07711); assay: Measurement of cathepsin L inhibitory activity (fluorescent substrate Z-Phe-Arg-MCA); settings: for IC50: pH 5.5, 30° C., 30 minutes; for L/K (ratio of IC50 cathepsin L to IC50 cathepsin K): selectivity ratio L/K
T3 construct: purchased Calbiochem Corp
T3 sequence (P07711 114-333): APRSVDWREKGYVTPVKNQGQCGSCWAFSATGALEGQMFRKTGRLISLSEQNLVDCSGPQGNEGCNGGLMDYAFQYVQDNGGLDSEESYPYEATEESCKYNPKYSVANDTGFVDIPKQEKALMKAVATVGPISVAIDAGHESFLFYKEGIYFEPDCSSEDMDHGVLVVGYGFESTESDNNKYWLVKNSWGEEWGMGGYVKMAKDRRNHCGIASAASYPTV
Method: as §1, with “cathepsin L” for “cathepsin B”, “substrate Z-Phe-Arg-MCA” for “substrate Z-Arg-Arg-MCA”, “[…] Z-Phe-Arg-MCA” for “mM Z-Arg-Arg-MCA”, “mM sodium acetate, 5” for “mM sodium/potassium phosphate, 1”, “EDTA, 4 mM urea,” for “EDTA,”, “pH 5.5.” for “pH 6.0.”

SMILES | IC50 (Cathepsin K) [nM] | IC50 (Human cathepsin B) [nM] | B/K (ratio of IC50 cathepsin B to IC50 cathepsin K) (Human cathepsin B) | IC50 (Human cathepsin L) [nM] | L/K (ratio of IC50 cathepsin L to IC50 cathepsin K) (Human cathepsin L)
CC(C)[C@@H](C=O)NC(=O)C1(NC(=O)OCc2ccccc2)CCCCC1 [Reference Example 189, N-[[1-[[(Phenylmethoxy)carbonyl]amino]cyclohexyl]carbonyl]-L-valinal] (Cbz-[Ac6c]-Val-aldehyde) | 1.7 | 390 | 230 | 680 | 400
CC(C)[C@@H](C=O)NC(=O)C1(NC(=O)c2ccco2)CCCCC1 [Reference Example 191, N-[[1-[(2-Furanylcarbonyl)amino]cyclohexyl]carbonyl]-L-valinal] | 0.54 | 47 | 87 | 200 | 370
CC(C)C[C@H](NC(=O)OCc1ccccc1)C(=O)N[C@H](C=O)C(C)C [Reference Example 193, N—[N-[(Phenylmethoxy)carbonyl]-L-leucyl]-L-valinal] (Cbz-Leu-Val-aldehyde) | 1.9 | 110 | 58 | 140 | 74
CCCC[C@@H](C=O)NC(=O)[C@H](CC(C)C)NC(=O)OCc1ccccc1 [Reference Example 194, N—[N-[(Phenylmethoxy)carbonyl]-L-leucyl]-L-norleucinal] | 3.5 | 40 | 11 | 53 | 15
CCCC[C@@H](C=O)NC(=O)C1(NC(=O)OCc2ccccc2)CCCCC1 [Reference Example 190, N-[[1-[[(Phenylmethoxy)carbonyl]amino]cyclohexyl]carbonyl]-L-norleucinal] (Cbz-[Ac6c]-[Nle]-aldehyde) | 4 | 140 | 35 | 200 | 50

Further lines, results first:

IC50 (Cathepsin K) [nM] | IC50 (Human cathepsin B) [nM] | B/K (ratio of IC50 cathepsin B to IC50 cathepsin K) (Human cathepsin B) | IC50 (Human cathepsin L) [nM] | L/K (ratio of IC50 cathepsin L to IC50 cathepsin K) (Human cathepsin L) | SMILES
22 | 260 | 12 | 470 | 21 | CCCC[C@@H](C=O)NC(=O)C1(NC(=O)N2CCOCC2)CCCCC1 [Reference Example 192, N-[[1-[(4-Morpholinylcarbonyl)amino]cyclohexyl]carbonyl]-L-norleucinal] ({Morpholide-CO}-[Ac6c]-[Nle]-aldehyde)
3 | 13 | 4.3 | 22 | 7.3 | CCCC[C@@H](C=O)NC(=O)[C@H](CC(C)C)NC(=O)N1CCOCC1 [Reference Example 195, N—[N-(4-Morpholinylcarbonyl)-L-leucyl]-L-norleucinal]
1.9 | 57 | 30 | 67 | 35 | CC(C)C[C@H](NC(=O)c1ccco1)C(=O)N[C@H](C=O)C(C)C [Reference Example 196, N—[N-(2-Furanylcarbonyl)-L-leucyl]-L-valinal]

From patent US8481725B2, “Cycloalkylcarbonylamino acid derivative and process for producing the same” (Seikagaku Corporation, priority 2006, dated 2013)
